Data published in US8551967B2, “Formulations with anti-tumour action” (Gentium SpA, priority 2003, dated 2013).
Read-outs that look alike come from different tables or passages of the source.

Columns and labels:
mammary carcinoma 13762 = assay: Tumour growth delay in rats carrying mammary carcinoma 13762; conditions: for Days to reach 500 mm^3 / TGD: chemotherapy alone, ip days 8 & 18; for Days to reach 500 mm^3: tumour implanted day 0; for TGD: versus controls
Experimental: The hepatotoxin monocrotaline and the AA carmustine (BCNU), alone or in association with DF, were tested in vivo in an experimental model which used rats carrying mammary carcinoma 13762.
Table 1. […] The tumour was implanted on day 0 and the chemotherapy was administered on day 8 and day 18.

MM-1S human MM cells = format: in vivo; conditions: for Tumor volume: P<0.05
Experimental: It was also tested whether DF has in vivo activity in a murine model of human multiple myeloma (MM). Sixty male SCID/NOD mice (6-8 weeks old) were irradiated (450 rads) and, 24 hrs later, injected s.c. with 5×10^6 MM-1S human MM cells. Upon formation of palpable tumors, mice were randomly assigned to 6 cohorts (10 mice each) receiving a) vehicle; b) DF (i.v. 450 mg/kg b.i.d); c) melphalan (MEL) 2.5 mg/kg i.p. once weekly; d) cyclophosphamide (CTX) 50 mg/kg i.p., on days 8, 10, 12, 20, 22 and 24; e) and f) combinations of DF (300 mg/kg i.v.) with MEL or CTX, respectively. Mice were monitored q3 days for body weight, potential toxicity, and electronic caliper-based tumor volumes.
The major endpoints for efficacy were a) tumor volume changes and b) overall survival (time-to-sacrifice, performed when tumor diameters>2 cm).

[1] = tested on: Lewis pulmonary carcinoma; assay: Tumour growth and pulmonary metastases in mice carrying Lewis pulmonary carcinoma; format: in vivo; conditions: DF added to paclitaxel with or without carboplatin
Excerpt: The mechanism underlying these effects remains to be explained, but it is possible that the anti-adhesive properties of DF are involved, given the role of cell adhesion in the mechanisms implicated in drug resistance (8, 9).

MM cells = assay: In vitro direct cytotoxicity against MM cells; format: cell-based; conditions: DF alone
bovine endothelial cells = assay: Cytotoxicity of alkylating agents with and without DF in bovine endothelial cells in culture; format: cell-based; conditions: DF 50 μg/ml with alkylating agents
Excerpt: In the following study, DF was examined in combination with antiblastic cytotoxic agents in a model of mouse EMT-6 mammary carcinoma cells and in bovine endothelial cells, in cell cultures and in an experimental model in which rats carrying tumours subjected to high doses of chemotherapy were used.

[2] = tested on: mouse EMT-6 mammary carcinoma cells; assay: Cytotoxicity of alkylating agents with and without DF in EMT-6 cells in culture
[3] = monocrotaline or BCNU together with DF
[4] = versus cytotoxic therapy alone, data not presented

Compound	Days to reach 500 mm^3 (mammary carcinoma 13762)	TGD (mammary carcinoma 13762)	Tumour growth delay (TGD), in words (mammary carcinoma 13762; DF alone versus control, p<0.05, repeat study)	Tumour growth delay (TGD), in words (mammary carcinoma 13762; DF associated with CTX and BCNU, p<0.04, greater than each agent alone, repeat study)	Additional toxicity in the animals (mammary carcinoma 13762; [3])	Tumour growth delay (TGD), in words (mammary carcinoma 13762; [3])	Tumor volume (MM-1S human MM cells; DF 300 mg/kg i.v. with MEL or CTX versus single-agent chemotherapy)	Tumor volume (MM-1S human MM cells; DF i.v. 450 mg/kg b.i.d versus control mice)	Tolerability (hemorrhagic complications, body weight) (MM-1S human MM cells; DF single agent (i.v. 450 mg/kg b.i.d) or 300 mg/kg i.v. with MEL or CTX, P>0.05)	Overall survival (time-to-sacrifice), Kaplan-Meier (MM-1S human MM cells; DF single agent or with MEL or CTX, versus vehicle or MEL- or CTX-treated groups, P<0.001 log-rank)	Toxicity [1]	Number of pulmonary metastases [1, 4]	Tumour growth (TGD) [1, 4]	Direct in vitro cytotoxic effect (MM cells)	Increase in cytotoxicity of AAs in association with DF (bovine endothelial cells)	Increment in the killing of tumour cells by 4HC ([2]; DF 50 μg/ml before and during, or during and after 4HC, 4HC 50-250 μmol)	Effect of DF on cytotoxicity of melphalan ([2]; DF before and during or during and after melphalan)	Effect of DF on cytotoxicity of carboplatin ([2]; DF with carboplatin, compared with thiotepa result)
O=NN(CCCl)C(=O)NCCCl [BCNU, carmustine]	18.0 ± 2.5 days	3.4 days	–	–	–	–	–	–	–	–	–	–	–	–	–	–	–	–
C[C@H]1C(=O)O[C@@H]2CCN3CC=C(COC(=O)[C@](C)(O)[C@]1(C)O)[C@H]23 [Monocrotaline, monocrotaline]	15.6 ± 1.0 days	1.0 days	–	–	–	–	–	–	–	–	–	–	–	–	–	–	–	–
defibrotide [DF]	–	–	significant tumour growth delay	particularly significant	no additional toxicity	significant tumour growth delay	significantly lower tumor volumes than the respective single-agent cytotoxic chemotherapy	significantly lower tumor volumes than in control mice	well tolerated without hemorrhagic complications or body weight loss	statistically significant prolongation of overall survival	without showing an obvious increase in toxicity	reduction	reduction in tumour growth	have not shown a significant direct in vitro cytotoxic effect	no increase in cytotoxicity	2 logarithmic units	did not show any significant effect	A similar result
